Literature values, collected in patent US8394287B2, “Non-aqueous heat transfer fluid and use thereof” (priority 2001, dated 2013).

Tested on: human
Conditions: Federal Register Vol. 63, No. 27, Feb. 10, 1998

For `OCCO` [EG, ethylene glycol], the “lethal dose for a human” value is listed as “approximately 1,570 mg/kg body mass”.
